This is an account of results in ChEMBL document CHEMBL1909046, “DrugMatrix in vitro pharmacology data”.

Assay [1] is described as follows: DRUGMATRIX: Glutamate, Kainate radioligand binding (ligand: [3H] Kainic acid). The conditions noted are these: Not Active = under 50% inhibition at 10 µM. In kind it is cell membranes, Rattus norvegicus, Wistar, Brain, Membrane.
Assay [2] can be described thus: DRUGMATRIX: Phorbol Ester radioligand binding (ligand: [3H] PDBu). In kind it is cell membranes, Mus musculus, ICR, Brain, Membrane. As to conditions: Not Active = under 50% inhibition at 10 µM.
A further assay deals with Melanocortin receptor 3 (Homo sapiens, UniProt P41968). Type of assay: cell membranes, Membrane. The conditions noted are these: hek293.
The target of a further assay is Acetylcholinesterase (Homo sapiens, UniProt P22303). The assay is described as follows: DRUGMATRIX: Acetylcholinesterase enzyme inhibition (substrate: acetylthiocholine). In kind it is cell-based, HEK293. The conditions noted are these: hek293; Not Active = under 50% inhibition at 10 µM.
In a further assay the target is T1, Adenosine receptor A3 (Homo sapiens, UniProt P0DMS8).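 Also: radioligand binding assay with AB-MECA serving as the labeled ligand; in other assays of this panel Not Active means under 50% inhibition at 10 µM.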
T1 sequence (P0DMS8 whole entry): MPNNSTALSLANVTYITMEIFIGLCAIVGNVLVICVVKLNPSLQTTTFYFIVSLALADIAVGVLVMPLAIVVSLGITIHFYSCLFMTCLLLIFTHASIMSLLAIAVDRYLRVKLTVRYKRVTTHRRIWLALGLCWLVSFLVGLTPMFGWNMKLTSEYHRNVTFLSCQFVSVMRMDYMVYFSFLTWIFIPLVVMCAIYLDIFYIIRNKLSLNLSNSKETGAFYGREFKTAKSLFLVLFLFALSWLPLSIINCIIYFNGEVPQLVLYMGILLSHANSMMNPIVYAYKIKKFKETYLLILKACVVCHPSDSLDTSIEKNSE
Type of assay: cell membranes, CHO-K1, Membrane.

Another assay deals with T2, Substance-K receptor (Homo sapiens, UniProt P21452).
T2 sequence (P21452 whole entry): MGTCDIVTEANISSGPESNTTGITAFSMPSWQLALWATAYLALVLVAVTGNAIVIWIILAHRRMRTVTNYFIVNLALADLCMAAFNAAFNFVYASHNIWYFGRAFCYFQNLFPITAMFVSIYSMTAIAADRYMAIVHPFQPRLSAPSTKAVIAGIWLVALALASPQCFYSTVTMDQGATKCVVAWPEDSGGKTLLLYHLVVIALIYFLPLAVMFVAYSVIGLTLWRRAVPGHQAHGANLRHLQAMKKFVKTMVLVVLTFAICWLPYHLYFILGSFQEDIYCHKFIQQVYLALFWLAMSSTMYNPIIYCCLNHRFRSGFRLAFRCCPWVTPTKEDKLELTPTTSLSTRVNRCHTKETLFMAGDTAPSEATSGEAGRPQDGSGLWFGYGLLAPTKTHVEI
Type of assay: cell membranes, CHO, Membrane. The conditions noted are these: cho.

Sequence of Acetylcholinesterase (P22303 whole entry): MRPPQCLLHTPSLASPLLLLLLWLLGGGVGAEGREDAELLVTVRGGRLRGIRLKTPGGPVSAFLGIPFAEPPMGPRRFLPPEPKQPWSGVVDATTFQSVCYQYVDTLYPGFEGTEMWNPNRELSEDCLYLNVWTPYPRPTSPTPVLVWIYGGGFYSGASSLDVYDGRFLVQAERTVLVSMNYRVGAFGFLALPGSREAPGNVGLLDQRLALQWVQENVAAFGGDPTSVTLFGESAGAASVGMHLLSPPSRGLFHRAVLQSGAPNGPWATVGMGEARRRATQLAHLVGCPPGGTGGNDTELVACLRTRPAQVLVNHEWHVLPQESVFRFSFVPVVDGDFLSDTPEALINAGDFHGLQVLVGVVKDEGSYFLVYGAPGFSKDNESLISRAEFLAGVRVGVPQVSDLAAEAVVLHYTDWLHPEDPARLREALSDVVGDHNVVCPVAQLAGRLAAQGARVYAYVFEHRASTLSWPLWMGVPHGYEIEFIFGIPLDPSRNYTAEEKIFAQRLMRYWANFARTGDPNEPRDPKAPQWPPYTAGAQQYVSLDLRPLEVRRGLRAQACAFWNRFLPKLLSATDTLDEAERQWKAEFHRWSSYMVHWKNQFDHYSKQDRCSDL
Sequence of Melanocortin receptor 3 (P41968 whole entry): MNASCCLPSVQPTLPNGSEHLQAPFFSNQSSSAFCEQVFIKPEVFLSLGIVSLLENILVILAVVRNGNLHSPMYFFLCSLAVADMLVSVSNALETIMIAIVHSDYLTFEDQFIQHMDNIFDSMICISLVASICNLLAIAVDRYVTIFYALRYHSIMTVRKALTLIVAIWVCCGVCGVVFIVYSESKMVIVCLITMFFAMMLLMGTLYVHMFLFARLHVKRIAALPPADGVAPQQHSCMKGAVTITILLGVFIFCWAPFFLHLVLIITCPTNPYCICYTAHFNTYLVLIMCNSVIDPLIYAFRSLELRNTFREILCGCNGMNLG

The IC50 is the concentration that gives 50% inhibition. A word on the Ki: it is a measure of affinity in units of concentration, obtained from inhibition or displacement. Turning to `Nc1ccc(S(=O)(=O)Nc2nccs2)cc1` [SULFATHIAZOLE], the IC50 result (in assay [1]; in assay [2]; at Melanocortin receptor 3; on Acetylcholinesterase; on Adenosine receptor A3 (cho-k1); at Substance-K receptor) was “Not Active” in each case. The Ki entry in assay [1] and in assay [2] was “Not Active” each time.
On to `C[C@]12CC[C@H]3[C@@H](CCC4=CC(=O)CC[C@@]43C)[C@@H]1CC[C@@H]2O` [TESTOSTERONE], for which the half-inhibitory concentration (IC50) entry (in assay [1]; in assay [2]; against Melanocortin receptor 3; against Acetylcholinesterase; on Adenosine receptor A3 (cho-k1); against Substance-K receptor) was “Not Active” each time. For the same compound, the Ki entry in assay [1] and in assay [2] was “Not Active” each time.
With `CC(C)(C)NC[C@H](O)COc1nsnc1N1CCOCC1` [TIMOLOL], the IC50 entry (in assay [1]; in assay [2]; against Melanocortin receptor 3; at Acetylcholinesterase; against Adenosine receptor A3 (cho-k1); against Substance-K receptor) was “Not Active” in each case. The Ki entry in assay [1] and in assay [2] was “Not Active” in each case.
On to `CCS(=O)(=O)CCn1c([N+](=O)[O-])cnc1C` [TINIDAZOLE], for which the IC50 result (in assay [1]; in assay [2]; on Melanocortin receptor 3; on Acetylcholinesterase; against Adenosine receptor A3 (cho-k1); at Substance-K receptor) was “Not Active” each time. Besides, the Ki result in assay [1] and in assay [2] was “Not Active” in each case.
With `C[C@@H]1C[C@H]2[C@@H]3CCC4=CC(=O)C=C[C@]4(C)C3=CC[C@]2(C)[C@H]1C(=O)CN1CCN(c2cc(N3CCCC3)nc(N3CCCC3)n2)CC1` [TIRILAZAD], the IC50 result (in assay [1]; in assay [2]; on Melanocortin receptor 3; at Acetylcholinesterase; at Adenosine receptor A3 (cho-k1); against Substance-K receptor) was “Not Active” each time. Besides, the Ki result in assay [1] and in assay [2] was “Not Active” throughout.
For `NC[C@H]1O[C@H](O[C@H]2[C@H](O)[C@@H](O[C@H]3O[C@H](CO)[C@@H](O)[C@H](N)[C@H]3O)[C@H](N)C[C@@H]2N)[C@H](N)C[C@@H]1O` [TOBRAMYCIN], the IC50 result (in assay [1]; in assay [2]; on Melanocortin receptor 3; against Acetylcholinesterase; against Adenosine receptor A3 (cho-k1); against Substance-K receptor) was “Not Active” each time. The Ki entry in assay [1] and in assay [2] was “Not Active” each time.
Regarding `O=C(O)C(Cl)(Cl)Cl` [TRICHLOROACETIC ACID], the IC50 result (in assay [1]; in assay [2]; at Melanocortin receptor 3; at Acetylcholinesterase; against Adenosine receptor A3 (cho-k1); at Substance-K receptor) was “Not Active” throughout. In addition, the Ki result in assay [1] and in assay [2] was “Not Active” each time.
As for `COc1ccc(CN2CCNCC2)c(OC)c1OC` [TRIMETAZIDINE], the IC50 entry (in assay [1]; in assay [2]; against Melanocortin receptor 3; at Acetylcholinesterase; on Adenosine receptor A3 (cho-k1); against Substance-K receptor) was “Not Active” in each case. The Ki entry in assay [1] and in assay [2] was “Not Active” in each case.
In the case of `CC(=O)O[C@H]1C[C@@H]2CC[C@@H]3[C@H](CC[C@@]4(C)[C@H]3C[C@H]([N+]3(C)CCCCC3)[C@@H]4OC(C)=O)[C@@]2(C)C[C@@H]1N1CCCCC1.[Br-]` [VECURONIUM BROMIDE], the IC50 result (in assay [1]; in assay [2]; on Melanocortin receptor 3; against Acetylcholinesterase; against Adenosine receptor A3 (cho-k1); against Substance-K receptor) was “Not Active” in each case. The Ki entry in assay [1] and in assay [2] was “Not Active” in each case.
As for `COc1cc(C(=O)NS(=O)(=O)c2ccccc2C)ccc1Cc1cn(C)c2ccc(NC(=O)OC3CCCC3)cc12` [ZAFIRLUKAST], the IC50 entry in assay [1] is “Not Active”; in assay [2], “Not Active”; against Melanocortin receptor 3, “Not Active”; at Acetylcholinesterase, “Not Active”; on Adenosine receptor A3 (read-out: IC50), 1360 nM; against Substance-K receptor, “Not Active”. For the same compound, the Ki result in assay [1] is “Not Active”; in assay [2], “Not Active”; at Adenosine receptor A3 (read-out: Ki) it was 770 nM.
On to `Cc1cn([C@H]2C[C@H](N=[N+]=[N-])[C@@H](CO)O2)c(=O)[nH]c1=O` [ZIDOVUDINE], for which the IC50 result (in assay [1]; in assay [2]; against Melanocortin receptor 3; at Acetylcholinesterase; at Adenosine receptor A3 (cho-k1); on Substance-K receptor) was “Not Active” throughout. In addition, the Ki result in assay [1] and in assay [2] was “Not Active” in each case.
Regarding STANNOUS FLUORIDE, the IC50 entry (in assay [1]; in assay [2]; against Melanocortin receptor 3; against Acetylcholinesterase; at Adenosine receptor A3 (cho-k1); on Substance-K receptor) was “Not Active” in each case. The Ki result (in assay [1]; in assay [2]; at Melanocortin receptor 3; at Acetylcholinesterase; at Adenosine receptor A3 (cho-k1); at Substance-K receptor) was “Not Active” in each case.
For the compound THIMEROSAL, the IC50 result (in assay [1]; in assay [2]; at Melanocortin receptor 3; against Acetylcholinesterase; on Substance-K receptor) was “Not Active” throughout. In addition, the Ki entry was “Not Active” in assay [1]; “Not Active” in assay [2]; “Not Active” at Melanocortin receptor 3; “Not Active” on Acetylcholinesterase; 1910 nM at Adenosine receptor A3 (cho-k1, read-out: Ki); “Not Active” at Substance-K receptor.
